Experimental findings from ChEMBL document CHEMBL4715829, “Heterodimeric Rifampicin-Tobramycin conjugates break intrinsic resistance of Pseudomonas aeruginosa to doxycycline and chloramphenicol in vitro and in a Galleria mellonella in vivo model” (Eur J Med Chem, 2019) are described below.

Values after ≈ are worked out from the molar mass of the structure shown. Some results are limits rather than exact numbers.

Series [1] concerns Pseudomonas aeruginosa. Description: Antibacterial activity against Pseudomonas aeruginosa 101243 assessed as reduction in bacterial growth incubated for 18 hrs by broth microdilution assay. The format is functional.
In series [2] the test system is Pseudomonas aeruginosa. Kind of series: Antibacterial activity against Pseudomonas aeruginosa PAO1 assessed as reduction in bacterial growth by measuring meropenem MIC at <=10 uM in presence of meropenem incubated for 18 hrs by broth microdilution assay based checkerboard assay (reference value: 1 microg/ml). Type of series: functional. As to conditions: dose microM <=10.

In series [3] the test system is Pseudomonas aeruginosa. Description: Antibacterial activity against Pseudomonas aeruginosa PAO1 assessed as reduction in bacterial growth by measuring clindamycin MIC at <=10 uM in presence of clindamycin incubated for 18 hrs by broth microdilution assay based checkerboard assay (reference value: 1024 microg/ml). As to conditions: dose microM <=10. Type of series: functional.

Series [4] in a line: Hemolytic activity in porcine erythrocyte at 1024 ug/ml incubated for 1 hr. Type of series: ADME, cell-based, Sus scrofa. Particulars: pig, porcine erythrocytes, at 1024 µg/mL, read-out: Activity.
Series [5] relates to Pseudomonas aeruginosa. Description: Antibacterial activity against Pseudomonas aeruginosa PAO1 assessed as reduction in bacterial growth by measuring rifampicin MIC at <=[…] uM in presence of rifampicin incubated for 18 hrs by broth microdilution assay based checkerboard assay (reference value: […] microg/ml). The format is functional. As to conditions: dose microM <=10.
The test system of series [6] is Pseudomonas aeruginosa. Kind of series: Antibacterial activity against Pseudomonas aeruginosa 262-101856 assessed as reduction in bacterial growth incubated for 18 hrs by broth microdilution assay. The format is functional.
For series [7], the system named is Pseudomonas aeruginosa. Description: Antibacterial activity against Pseudomonas aeruginosa ATCC 27853 assessed as reduction in bacterial growth incubated for 18 hrs by broth microdilution assay. Type of series: functional.
Series [8] concerns Pseudomonas aeruginosa. Kind of series: Antibacterial activity against gentamicin, tobramycin-resistant Pseudomonas aeruginosa CANWARD 96846 assessed as reduction in bacterial growth incubated for 18 hrs by broth microdilution assay. Type of series: functional.
For series [9], the system named is Pseudomonas aeruginosa. Description: Antibacterial activity against Pseudomonas aeruginosa PAO1 assessed as reduction in bacterial growth by measuring aztreonam MIC at <=10 uM in presence of aztreonam incubated for 18 hrs by broth microdilution assay based checkerboard assay (reference value: 4 microg/ml). Type of series: functional. Particulars: dose microM <=10.

The test system of series [10] is Pseudomonas aeruginosa. Description: Antibacterial activity against Pseudomonas aeruginosa PAO1 assessed as fractional inhibitory concentration index in presence of Pleuromutilin incubated for 18 hrs by broth microdilution assay based checkerboard assay. The format is functional.
For a further series, the system named is Enterococcus faecalis. Kind of series: Antibacterial activity against Enterococcus faecalis ATCC 29212 assessed as reduction in bacterial growth incubated for 18 hrs by broth microdilution assay. Type of series: functional.
A further series concerns Enterococcus faecium. Kind of series: Antibacterial activity against Enterococcus faecium ATCC 27270 assessed as reduction in bacterial growth incubated for 18 hrs by broth microdilution assay. The format is functional.
For series [11], the system named is Pseudomonas aeruginosa. Kind of series: Antibacterial activity against Pseudomonas aeruginosa PAO1 assessed as fractional inhibitory concentration index in presence of Ceftazidime incubated for 18 hrs by broth microdilution assay based checkerboard assay. Type of series: functional.
The test system of series [12] is Pseudomonas aeruginosa. Kind of series: Antibacterial activity against Pseudomonas aeruginosa 259-96918 assessed as reduction in bacterial growth incubated for 18 hrs by broth microdilution assay. Type of series: functional.
Series [13] concerns Pseudomonas aeruginosa. Kind of series: Antibacterial activity against Pseudomonas aeruginosa PAO1 assessed as reduction in bacterial growth by measuring vancomycin MIC at <=10 uM in presence of vancomycin incubated for 18 hrs by broth microdilution assay based checkerboard assay (reference value: 256 microg/ml). The format is functional. As to conditions: dose microM <=10.

The nature of series [14]: Cytotoxicity against human HEK293 cells assessed as cell viability at <10 uM incubated for 48 hrs by prestoblue assay. Particulars: read-out: Activity. The format is cell-based.
Series [15] in a line: Cytotoxicity against human HepG2 cells assessed as cell viability at 50 uM incubated for 48 hrs by prestoblue assay. Type of series: cell-based. As to conditions: read-out: Activity.
The test system of series [16] is Pseudomonas aeruginosa. Kind of series: Antibacterial activity against Pseudomonas aeruginosa PAO1 assessed as reduction in bacterial growth by measuring novobiocin MIC at <=10 uM in presence of novobiocin incubated for 18 hrs by broth microdilution assay based checkerboard assay (reference value: 512 microg/ml). Type of series: functional. As to conditions: dose microM <=10.

Series [17] concerns Pseudomonas aeruginosa. Kind of series: Antibacterial activity against Pseudomonas aeruginosa PAO1 assessed as reduction in bacterial growth by measuring minocycline MIC at <=10 uM in presence of minocycline incubated for 18 hrs by broth microdilution assay based checkerboard assay (reference value: 8 microg/ml). Particulars: dose microM <=10. The format is functional.
The subject of series [18] is Pseudomonas aeruginosa. Description: Antibacterial activity against Pseudomonas aeruginosa PAO1 assessed as fractional inhibitory concentration index in presence of Clindamycin incubated for 18 hrs by broth microdilution assay based checkerboard assay. Type of series: functional.
Series [19] concerns Pseudomonas aeruginosa. Kind of series: Antibacterial activity against Pseudomonas aeruginosa PAO1 assessed as fractional inhibitory concentration index in presence of Cefotaxime incubated for 18 hrs by broth microdilution assay based checkerboard assay. Type of series: functional.
A short description of series [20]: Cytotoxicity against human HepG2 cells assessed as cell viability at <10 uM incubated for 48 hrs prestoblue assay. The format is cell-based. As to conditions: read-out: Activity.
Series [21] relates to Pseudomonas aeruginosa. Description: Antibacterial activity against Pseudomonas aeruginosa PAO1 assessed as fractional inhibitory concentration index in presence of Meropenem incubated for 18 hrs by broth microdilution assay based checkerboard assay. Type of series: functional.
In series [22] the test system is Stenotrophomonas maltophilia. Description: Antibacterial activity against Stenotrophomonas maltophilia CAN-ICU 62584 assessed as reduction in bacterial growth incubated for 18 hrs by broth microdilution assay. Type of series: functional.
Series [23] has as its system Pseudomonas aeruginosa. Description: Antibacterial activity against Pseudomonas aeruginosa PAO1 assessed as reduction in bacterial growth by measuring pleuromutilin MIC at <=10 uM in presence of pleuromutilin incubated for 18 hrs by broth microdilution assay based checkerboard assay (reference value: 512 microg/ml). Type of series: functional. Particulars: dose microM <=10.

The test system of series [24] is Pseudomonas aeruginosa. Kind of series: Antibacterial activity against Pseudomonas aeruginosa 750 harboring efflux mutant assessed as reduction in bacterial growth incubated for 18 hrs by broth microdilution assay. The format is functional.
In series [25] the test system is Pseudomonas aeruginosa. Description: Antibacterial activity against Pseudomonas aeruginosa PAO1 assessed as fractional inhibitory concentration index in presence of Aztreonam incubated for 18 hrs by broth microdilution assay based checkerboard assay. The format is functional.
Series [26] relates to Pseudomonas aeruginosa. Description: Antibacterial activity against Pseudomonas aeruginosa 200 harboring efflux mutant assessed as reduction in bacterial growth incubated for 18 hrs by broth microdilution assay. The format is functional.
For series [27], the system named is Pseudomonas aeruginosa. Kind of series: Antibacterial activity against Pseudomonas aeruginosa PAO1 assessed as fractional inhibitory concentration index in presence of Fosfomycin incubated for 18 hrs by broth microdilution assay based checkerboard assay. Type of series: functional.
The next series concerns Staphylococcus aureus. Description: Antibacterial activity against Staphylococcus aureus ATCC 29213 assessed as reduction in bacterial growth incubated for 18 hrs by broth microdilution assay. The format is functional.
Series [28] deals with Pseudomonas aeruginosa. Description: Antibacterial activity against Pseudomonas aeruginosa 259-96918 assessed as fractional inhibitory concentration index in presence of doxycycline incubated for 18 hrs by broth microdilution assay. Type of series: functional.
The subject of series [29] is Pseudomonas aeruginosa. Description: Antibacterial activity against Pseudomonas aeruginosa 264-101354 assessed as fractional inhibitory concentration index in presence of doxycycline incubated for 18 hrs by broth microdilution assay. Type of series: functional.
Series [30] relates to Pseudomonas aeruginosa. Kind of series: Antibacterial activity against Pseudomonas aeruginosa 260-97103 assessed as fractional inhibitory concentration index in presence of doxycycline incubated for 18 hrs by broth microdilution assay. The format is functional.
For series [31], the system named is Pseudomonas aeruginosa. Kind of series: Antibacterial activity against Pseudomonas aeruginosa 262-101856 assessed as fractional inhibitory concentration index in presence of chloramphenicol incubated for 18 hrs by broth microdilution assay. Type of series: functional.
Series [32] relates to Pseudomonas aeruginosa. Description: Antibacterial activity against Pseudomonas aeruginosa 262-101856 assessed as fractional inhibitory concentration index in presence of doxycycline incubated for 18 hrs by broth microdilution assay. The format is functional.
The subject of series [33] is Pseudomonas aeruginosa. Kind of series: Antibacterial activity against Pseudomonas aeruginosa 264-101354 assessed as fractional inhibitory concentration index in presence of chloramphenicol incubated for 18 hrs by broth microdilution assay. The format is functional.
The test system of series [34] is Pseudomonas aeruginosa. Description: Antibacterial activity against Pseudomonas aeruginosa 100036 assessed as fractional inhibitory concentration index in presence of chloramphenicol incubated for 18 hrs by broth microdilution assay. Type of series: functional.

As to `CO[C@H]1/C=C/O[C@@]2(C)Oc3c(C)c(O)c4c(O)c(c(/C=N/N5CCN(Cc6cn(CCCCO[C@@H]7[C@@H](O[C@H]8O[C@H](CO)[C@@H](O)[C@H](N)[C@H]8O)[C@H](N)C[C@H](N)[C@H]7O[C@H]7O[C@H](CN)[C@@H](O)C[C@H]7N)nn6)CC5)c(O)c4c3C2=O)NC(=O)/C(C)=C\C=C\[C@H](C)[C@H](O)[C@@H](C)[C@@H](O)[C@@H](C)[C@H](OC(C)=O)[C@@H]1C.O=C(O)C(F)(F)F.O=C(O)C(F)(F)F.O=C(O)C(F)(F)F.O=C(O)C(F)(F)F.O=C(O)C(F)(F)F`, the MIC in the series with Pseudomonas aeruginosa [1] is 256 µg/mL; in the series on Pseudomonas aeruginosa [2], 1 µg/mL; in the series with Pseudomonas aeruginosa [3] it was 512 µg/mL; in the series with Pseudomonas aeruginosa [5] it was 4 µg/mL; in the series on Pseudomonas aeruginosa [6] it was over 256 µg/mL; with Pseudomonas aeruginosa [7], over 32 µg/mL. For the same compound, the MIC in the series with Pseudomonas aeruginosa [8] is over 32 µg/mL; in the series with Pseudomonas aeruginosa [9], 4 µg/mL; in the series on Enterococcus faecalis it was over 32 µg/mL; in the series on Enterococcus faecium, 32 µg/mL; in the series on Pseudomonas aeruginosa [12], over 128 µg/mL; with Pseudomonas aeruginosa [13] it was 256 µg/mL. The MIC in the series on Pseudomonas aeruginosa [16] is 256 µg/mL; in the series with Pseudomonas aeruginosa [17], 2 µg/mL; in series [22], over 32 µg/mL; with Pseudomonas aeruginosa [23], 512 µg/mL; in the series on Pseudomonas aeruginosa [24], over 256 µg/mL; in the series with Pseudomonas aeruginosa [26] it was 256 µg/mL. Further, the MIC in the series with Staphylococcus aureus was 4 µg/mL. In series [4], the hemolysis at 1 h, 1024 ug/ml is under 2%. For the same compound, the “fractional inhibitory concentration index (FICI)” value with Pseudomonas aeruginosa [10] came to 1.03; with Pseudomonas aeruginosa [11], 1.03; in the series on Pseudomonas aeruginosa [18], 0.53; in the series with Pseudomonas aeruginosa [19] it was 1.03; in the series with Pseudomonas aeruginosa [21] it was 1.03; in the series with Pseudomonas aeruginosa [25], 1.03. For the same compound, in the series on Pseudomonas aeruginosa [27], the “fractional inhibitory concentration index (FICI)” value was 1.03. Besides, the viability at 48 h in [14] and in series [20] was over 90% throughout. Besides, the viability at 48 h, 50 µM in [15] was over 70%.
As for `NC[C@H]1O[C@H](O[C@H]2[C@H](O)[C@@H](O[C@H]3O[C@H](CO)[C@@H](O)[C@H](N)[C@H]3O)[C@H](N)C[C@@H]2N)[C@H](N)C[C@@H]1O` [TOBRAMYCIN], the MIC in the series on Pseudomonas aeruginosa [1] was found to be 128 µg/mL (≈ 274 µM); in the series on Pseudomonas aeruginosa [6] it was 1020 µg/mL (≈ 2190 µM); in the series on Pseudomonas aeruginosa [7] it was 1 µg/mL (≈ 2.14 µM); in the series with Pseudomonas aeruginosa [8] it was 256 µg/mL (≈ 548 µM); with Enterococcus faecalis, 8 µg/mL (≈ 17.1 µM); in the series with Enterococcus faecium, 16 µg/mL (≈ 34.2 µM). Also, the minimum inhibitory concentration (MIC) with Pseudomonas aeruginosa [12] is 256 µg/mL (≈ 548 µM); in [22] it was over 512 µg/mL; in the series on Pseudomonas aeruginosa [24] it was 0.5 µg/mL (≈ 1.07 µM); in the series on Pseudomonas aeruginosa [26] it was 0.5 µg/mL (≈ 1.07 µM); with Staphylococcus aureus, 0.5 µg/mL (≈ 1.07 µM). Moreover, the “fractional inhibitory concentration index (FICI)” value in the series on Pseudomonas aeruginosa [28] was 1.125; in the series with Pseudomonas aeruginosa [29] it was 1.5; in the series with Pseudomonas aeruginosa [30] it was 1.5; in the series with Pseudomonas aeruginosa [31], “<=1”; with Pseudomonas aeruginosa [32] it was “<=1.5”; in the series with Pseudomonas aeruginosa [33] it was 1. In addition, the “fractional inhibitory concentration index (FICI)” value with Pseudomonas aeruginosa [34] amounted to 1.5.
